Values after ≈ are worked out from the molar mass of the structure shown. Where two headings read alike, the source gives them in different places.
Experiments:
HIV-1LAV = assay: Anti-HIV-1 activity in PBM cells; format: cell-based, human immunodeficiency virus (HIV-1); conditions: T5
Description: Anti-HIV-1 activity was determined in PBM cells as described previously. See, Stock solutions (20 or 40 mM) of the compounds were prepared in sterile DMSO and then diluted to the desired concentration in growth medium. Cells were infected with the prototype HIV-1LAV at a multiplicity of infection of 0.1. Details on the infection of cells and assessment of antiviral effects was described previously. See, Schinazi, R. F.; McMillan, A.; Cannon, D.; Mathis, R.; Lloyd, R. M.; Peck, A.; Sommadossi, J.-P.; Clair, M. S.; Wilson, J.; Furman, P. A.; Painter G.; Choi, W.-B.; Liotta, D. C. Antimicrob. Agents Chemother. 1992, 36, 2423-2431 and Schinazi, R. F.; Sommadossi, J.-P.; Saalmann, V.; Cannon, D. L.; Xie, M.-Y.; Hart, G. C.; Smith, G. A.; Hahn, E. F. Antimicrob. Agents Chemother. 1990, 34, 1061-1067.

Leishmania donovani = assay: Antileishmanial activity in vitro; format: cell-based
[1] = test system: Plasmodium falciparum (D6 clone); assay: Antimalarial activity in vitro, D6 clone; format: cell-based
[2] = test system: P. falciparum (chlorine-resistant W2 clone); assay: Antimalarial activity in vitro, W2 clone; format: cell-based, Plasmodium falciparum
Cryptococcus neoformans = assay: Antifungal activity against Cryptococcus neoformans; format: cell-based; conditions: T5, NA = not active
Staphylococcus aureus = assay: Antibacterial activity against S. aureus; format: cell-based; conditions: for IC50: Staphylococcus aureus
[3] = test system: methicillin-resistant Staphylococcus aureus; assay: Antibacterial activity against MRS; format: cell-based
[4] = test system: Mycobacterium intracellulare; assay: Activity against M. intracellulare; format: cell-based
[5] = test system: Mycobacterium tuberculosis H37Rv; assay: In vitro antimycobacterial activity (Microplate Alamar Blue Assay), MIC; format: cell-based; conditions: T4
[6] = Mycobacterium intracellulare, T5, NA = not active, read-out: IC50 M. intracellulare

O=C1CCCN2C3C45C=C(c6nccc7c6[nH]c6ccccc67)C6CCN(CCCC/C=C\CC4)CC63C[C@@]2(CC1)O5 (stereo partly shown) [12,34-Oxamanzamine E]
EC50 (HIV-1LAV): 17.5 µM

CC(C)COC12C=C(c3nccc4c3[nH]c3ccccc34)C3CCN(CCCCC=CCC1)CC31CC3C=CCCCCN3C21 (stereo not shown) [12-O-isobutylmanzamine-A]
Leishmania donovani IC 50 (Leishmania donovani; T7): 0.98 µg/mL | Leishmania donovani IC 90 (Leishmania donovani; T7): 2.6 µg/mL

COc1ccc(OC)c(NC2CCCN3C(CC2)C[C@]24CN5CCCC/C=C\CC[C@](O)(C=C(c6nccc7c6[nH]c6c(O)cccc67)C2CC5)[C@H]34)c1 (stereo partly shown) [33-(2,5-dimethoxyaniline)-manzamine-F]
Plasmodium falciparum (D6 clone) IC 50 ([1]; T8, NA not defined): 1.7 µg/mL | P. falciparum (chlorine-resistant W2 clone) IC 50 ([2]; T8): 2.6 µg/mL

CCOC12C=C(c3nccc4c3[nH]c3ccccc34)C3CCN(CCCCC=CCC1)CC31CC3C=CCCCCN3C21 (stereo not shown) [12-O-ethylmanzamine-A]
Leishmania donovani IC 50 (Leishmania donovani; T7): 2.8 µg/mL | Leishmania donovani IC 90 (Leishmania donovani; T7): 8.2 µg/mL

Oc1ccc2[nH]c3c(C4=C[C@@]5(O)CC/C=C\CCCCN6CC[C@@H]4[C@@]4(C6)C[C@@]67CC[C@@H](CCCN6[C@H]45)O7)nccc3c2c1 [Manzamine X]
EC50 (HIV-1LAV): 2.3 µM | Antifungal IC50 C. neoformans (Cryptococcus neoformans): 3.0 µg/mL | Plasmodium falciparum (D6 clone) IC 50 ([1]; T4, NA = not active): 0.95 µg/mL | P. falciparum (chlorine-resistant W2 clone) IC 50 ([2]; T4, NA = not active): 2 µg/mL | Leishmania donovani IC 50 (Leishmania donovani; T4): 5.7 µg/mL | Leishmania donovani IC 90 (Leishmania donovani; T4): 11 µg/mL | Antibacterial IC50 S. aureus (Staphylococcus aureus; T5, NA = not active): 1.0 µg/mL | Antibacterial IC50 MRS ([3]; T5, NA = not active): 0.75 µg/mL | IC50 M. intracellulare ([4]; T5, NA = not active): 1.5 µg/mL (≈ 2.58 µM)

O[C@]12C=C(c3nccc4c3[nH]c3ccccc34)[C@@H]3CCN(CCCC/C=C\CC1)C[C@@]31CC/C=C\CCCCN[C@H]12 [Manzamine J]
Mycobacterium Tuberculosis (H37Rv) MIC [5]: 1.7 µg/mL | Plasmodium falciparum (D6 clone) IC 50 ([1]; T4, NA = not active): 1.3 µg/mL | P. falciparum (chlorine-resistant W2 clone) IC 50 ([2]; T4, NA = not active): 0.75 µg/mL | Leishmania donovani IC 50 (Leishmania donovani; T4): 25 µg/mL | Leishmania donovani IC 90 (Leishmania donovani; T4): 45 µg/mL

N=C(N)c1ccc(OCCCCCOc2ccc(C(=N)N)cc2)cc1 [Pentamidine, reference compound]
IC50 (Leishmania donovani; Leishmania donovani, T4, read-out: Leishmania donovani IC 50): 2.1 µg/mL (≈ 6.17 µM) | IC90 (Leishmania donovani; Leishmania donovani, T4, read-out: Leishmania donovani IC 90): 10 µg/mL (≈ 29.4 µM)

O[C@@H]1CCCN2CC[C@@H]1O[C@@]13CC[C@@H](OC[C@]45CN6CCCC/C=C\CC[C@](O)(C=C(c7nccc8c7[nH]c7ccccc78)[C@@H]4CC6)[C@H]25)[C@@H](O)CCN1[C@@H]1[C@]2(CN4CCCC/C=C\CC[C@]1(O)C=C(c1nccc5c1[nH]c1ccccc15)[C@@H]2CC4)C3 [neo-Kauluamine]
MIC ([5]; Mycobacterium tuberculosis, H37RV, read-out: Mycobacterium Tuberculosis (H37Rv) MIC): 2 µg/mL (≈ 1.72 µM) | IC50 (Cryptococcus neoformans; Cryptococcus neoformans, read-out: Antifungal IC50 C. neoformans): 3 µg/mL (≈ 2.58 µM) | IC50 ([1]; Plasmodium falciparum, D6, T4, NA = not active, read-out: Plasmodium falciparum (D6 clone) IC 50): 1.7 µg/mL (≈ 1.46 µM) | IC50 ([2]; Plasmodium falciparum, W2, read-out: P. falciparum (chlorine-resistant W2 clone) IC 50): 2.8 µg/mL (≈ 2.41 µM) | IC50 [4, 6]: 3 µg/mL (≈ 2.58 µM)

Oc1cccc2c1[nH]c1c(C3=C[C@@]4(O)CC/C=C\CCCCN5CCC3[C@]3(CC6/C=C\CCCCN6[C@H]34)C5)nccc12 (single isomer, unassigned; (+)) [(+)-8-Hydroxymanzamine A]
Mycobacterium Tuberculosis (H37Rv) MIC [5]: 0.91 µg/mL | EC50 (HIV-1LAV): 0.59 µM | Antifungal IC50 C. neoformans (Cryptococcus neoformans): 3.0 µg/mL | Plasmodium falciparum (D6 clone) IC 50 ([1]; T4, NA = not active): 0.006 µg/mL | P. falciparum (chlorine-resistant W2 clone) IC 50 ([2]; T4, NA = not active): 0.008 µg/mL | Leishmania donovani IC 50 (Leishmania donovani; T4): 6.2 µg/mL | Leishmania donovani IC 90 (Leishmania donovani; T4): 11 µg/mL | Antibacterial IC50 S. aureus (Staphylococcus aureus; T5, NA = not active): 0.9 µg/mL | Antibacterial IC50 MRS ([3]; T5, NA = not active): 4.0 µg/mL | IC50 M. intracellulare ([4]; T5, NA = not active): 1.0 µg/mL (≈ 1.77 µM)

Oc1cccc2c1[nH]c1c(C3=C[C@@]4(O)CC/C=C\CCCCN5CCC3[C@]3(CC6CCC(NCc7ccc(Cl)cc7)CCCN6[C@H]34)C5)nccc12 (stereo partly shown) [33-(p-chlorobenzylamino)-manzamine-F]
Plasmodium falciparum (D6 clone) IC 50 ([1]; T8, NA not defined): 0.68 µg/mL | P. falciparum (chlorine-resistant W2 clone) IC 50 ([2]; T8): 1.3 µg/mL

O=C1CCCN2[C@@H](CC1)C[C@]13CN4CCCC/C=C\CC[C@](O)(C=C(c5nccc6c5[nH]c5c(O)cccc56)C1CC4)[C@H]23 (stereo partly shown) [Manzamine F]
Mycobacterium Tuberculosis (H37Rv) MIC [5]: 2.56 µg/mL | EC50 (HIV-1LAV): 7.3 µM | Antifungal IC50 C. neoformans (Cryptococcus neoformans): 6.5 µg/mL | Plasmodium falciparum (D6 clone) IC 50 ([1]; T4, NA = not active): 0.78 µg/mL | Plasmodium falciparum (D6 clone) IC 50 ([1]; T8, NA not defined): 0.78 µg/mL | P. falciparum (chlorine-resistant W2 clone) IC 50 ([2]; T4, NA = not active): 1.7 µg/mL | P. falciparum (chlorine-resistant W2 clone) IC 50 ([2]; T8): 1.7 µg/mL | Leishmania donovani IC 50 (Leishmania donovani; T4): 4.2 µg/mL | Leishmania donovani IC 90 (Leishmania donovani; T4): 7 µg/mL | IC50 M. intracellulare ([4]; T5, NA = not active): 6.25 µg/mL (≈ 10.8 µM)

O=C(O)c1cn(C2CC2)c2cc(N3CCNCC3)c(F)cc2c1=O [Ciprofloxacin, reference compound]
IC50 (Staphylococcus aureus; T5, NA = not active, read-out: Antibacterial IC50 S. aureus): 0.1 µg/mL (≈ 0.302 µM) | IC50 (Staphylococcus aureus; T6, read-out: Staphylococcus aureus IC50): 0.1 µg/mL (≈ 0.302 µM) | IC50 ([3]; Staphylococcus aureus, T5, NA = not active, read-out: Antibacterial IC50 MRS): 0.1 µg/mL (≈ 0.302 µM) | MIC ([3]; Staphylococcus aureus, T6): 0.31 µg/mL (≈ 0.936 µM) | IC50 ([3]; T6, MRS: methicillin-resistant Staphylococcus aureus, read-out: MRS IC50): 0.1 µg/mL (≈ 0.302 µM) | IC50 [4, 6]: 0.25 µg/mL (≈ 0.754 µM) | MIC ([4]; Mycobacterium intracellulare, T6): 0.63 µg/mL (≈ 1.9 µM) | IC50 ([4]; Mycobacterium intracellulare, T6, read-out: Mycobacterium intracellulare IC50): 0.25 µg/mL (≈ 0.754 µM)

Source: patent publication US20050085554A1, “Methods of treating disease through the administration of a manzamine analog or derivative” (priority 2003, published 2005)
